This is an account of results in patent US8765683B2, “T-140 peptide analogs having CXCR4 super-agonist activity for cancer therapy” (Biokine Therapeutics Ltd., priority 2006, dated 2014).

The test system of one assay is K562L cells. Description: K562L (luciferase) CML model, CCCD camera. Format: in vivo, NOD/SCID mice. As to the method: In order to monitor the progression and localization of leukemic cells in vivo, the human CML tumor cell lines K562 (K562L) was stably transduced with a retrovirus carrying the luciferase gene. This cell line was injected IP into NOD/SCID mice (2.5×10^5, 5×10^5, 10^6, 2×10^6 per mouse; FIGS. 18 A-D, respectively) that were pretreated with a sub-lethal dose of radiation in order to diminish any natural killer cell activity and enhance acceptance of the tumor cells. Twenty-four hr after injection of the cells, the light generated internally by the luciferase expressed in the tumor cells and then transmitted through the animal's tissues was monitored externally using a cooled charge-coupled device camera (CCCD). The substrate luciferin was provided exogenously via IP injection. […] Quantitation was achieved by integrating the signal intensity using the Metaview software.
Two therapeutic approaches were studied using this model. […] In addition, the effect of 4F-benzoyl-TN14003 on the growth of cells in vivo was investigated.
Further, the effect of 4F-benzoyl-TN14003 on K562L tumor development was studied. 4F-benzoyl-TN14003 was injected i.p into NOD/SCID mice in the amount of 4 mg/Kg per mouse/per injection. The first injection of 4F-benzoyl-TN14003 was given immediately after the injection of K562-luc cells in an opposite route of injection on the peritoneum. Further injections of 4F-benzoyl-TN14003 were given every three days. Mice were monitored under the CCCD camera, 24 hr after each injection at serial time points, every three days.
4F-benzoyl-TN14003 was injected i.p into NOD/SCID mice in the amount of 2 mg/Kg whereas AMD-3100 was injected 4 mg/Kg per mouse/per injection. The first injection was given 2 days after the injection of K562-luc cells. Further injections were given on days 5, 7 and 11. Mice (n=3) were monitored under the CCCD camera on day 17 after injection of cells.

Assay [1] concerns PC3-CXCR4.5 cells. The experiment in a line: Proliferation of PC3-CXCR4.5 prostate tumor cells. The assay is classed as cell-based. As to the method: (§1) Next, the effect of the CXCR4 modulators on PC3 and PC3-CXCR4.5 prostate tumor cells was tested. […] The proliferation induced by 4F-benzoyl-TN14003 was dose-dependent (FIG. 3B).
In the next assay the test system is human CD4+ T cells. Description: Proliferation and survival of CD4+ T cells. The assay is classed as cell-based. The following applies: AMD-3100 20 μM; 4F-benzoyl-TN14003 4-20 μM. As for the experimental part:
(§2) The effect of CXCR4 antagonists on the survival of freshly isolated normal CD4^+ T cells, CD34^+ stem cells and keratinocytes was examined. The proliferation and survival of keratinocytes was not inhibited by CXCR4 antagonists AMD-3100 (20 μM) and 4F-benzoyl-TN14003 (4-20 μM) or the natural ligand CXCL12 (FIG. 2C). The proliferation and survival of CD4^+ T cells was not inhibited by CXCR4 antagonists AMD-3100 (20 μM).

For assay [2], the system named is PC3 cells. Description: Proliferation of PC3 prostate tumor cells. The assay is classed as cell-based. As to the method:
as §1

For assay [3], the system named is human primary keratinocytes. Description: Proliferation and survival of keratinocytes. Format: cell-based. The following applies: AMD-3100 20 μM; 4F-benzoyl-TN14003 4-20 μM. As to the method:
as §2

For another assay, the system named is U-87. The experiment in a line: Proliferation of U-87 glioblastoma cells. The assay is classed as cell-based.
The next assay concerns SKBR3. Description: Proliferation of SKBR3 breast carcinoma cells. The assay is classed as cell-based.
Another assay deals with 22Rv1. The experiment in a line: Proliferation of 22Rv1 prostate carcinoma cells. The assay is classed as cell-based.
In assay [4] the test system is human CD34+ hematopoietic stem cells. Particulars: AMD-3100 20 μM.
Assay [5] relates to PC3-CXCR4.5 cells. The experiment in a line: MIP3α secretion by PC3-CXCR4.5 cells (ELISA). The assay is classed as cell-based. As for the experimental part: (§3) In this example, regulation of the chemokine MIP3α (macrophage inflammatory protein 3α) was examined. […] In FIG. 1B, PC3 (left panel) and PC3-CXCR4.5 (right panel) cells were stimulated with the indicated concentrations of CXCL12 for 48 hours and MIP3α secretion was assessed by ELISA. The results represent the average of triplicates±STDEV.
(§4) The effects of the CXCR4 antagonist AMD3100 and of 4F-benzoyl-TN14003 (4FB-TN14003), hitherto known as a CXCR4 antagonist, on MIP3α secretion were further tested. […] In FIG. 1C, CXCR4 signaling in PC3 (left panel) and PC3-CXCR4.5 (right panel) cells was inhibited with anti-CXCL12 antibodies (αCXCL12) and Pertussis toxin (PTX) treatments alone or in combination with CXCL12, as indicated. Secretion of MIP3α was assessed by ELISA. The results represent the average of triplicates±STDEV.

Assay [6] concerns PC3 cells. The experiment in a line: MIP3α secretion by PC3 cells (ELISA). Format: cell-based. As for the experimental part: as §3, §4
Another assay concerns NB4 cells. The experiment in a line: Proliferation of NB4 AML cells. The following applies: NB4 cells. The assay is classed as cell-based, human.
For a further assay, the system named is HL-60 cells. Description: Proliferation and apoptosis (Annexin V) of HL-60 cells. Format: cell-based, human. The following applies: AMD-3100 50 μM pretreatment.

Consider `Cc1ccc(NC(=O)c2ccc(CN3CCN(C)CC3)cc2)cc1Nc1nccc(-c2cccnc2)n1` [STI571], for which, in the assay on K562L cells (40 mg/Kg IP, FIG. 20), the “tumor development of K562L cells” value was “inhibit tumor development”. In addition, in the assay on K562L cells (40 mg/Kg, FIG. 19), the “signal intensities over time” value was “significant reduction in signal intensities”.

With “CXCL12: chemokine, CXCR4's only natural ligand”, the proliferation result in the assay on PC3-CXCR4.5 cells [1] is recorded as “induced the proliferation of prostate cancer cells”; in the assay on PC3 cells [2] it was “induced the proliferation of prostate cancer cells”; in the assay with U-87 it was “either stimulated or not affected”; in the assay on SKBR3 it was “either stimulated or not affected”; in the assay on 22Rv1, “either stimulated or not affected”. Also, the “proliferation and survival of CD4+ T cells” value with human CD4+ T cells is listed as “induced T cell proliferation”. For the same molecule, the “proliferation and survival of keratinocytes” value in [3] was “not inhibited”. Also, the “CD34+ stem cell numbers” value in assay [4] is listed as “did not affect cell numbers”.

Consider Pertussis toxin, for which the MIP3α secretion result in the assay with PC3-CXCR4.5 cells [5] (ELISA) is listed as “secretion of MIP3α was decreased”; with PC3-CXCR4.5 cells [5] (PTX in combination with CXCL12) it was “did not demonstrate an inhibitory effect”; in the assay with PC3 cells [6], “effectively inhibited the secretion of MIP3α”.

As to `c1cc(CN2CCCNCCNCCCNCC2)ccc1CN1CCCNCCNCCCNCC1` [AMD-3100, reference compound], the proliferation result was “induced the proliferation of prostate cancer cells” in the assay on PC3-CXCR4.5 cells [1]; “induced the proliferation of prostate cancer cells” with PC3 cells [2]; “either stimulated or not affected” in the assay with U-87; “either stimulated or not affected” with SKBR3; “either stimulated or not affected” in the assay with 22Rv1. In addition, the “proliferation and survival of CD4+ T cells” value with human CD4+ T cells is given as “not inhibited”. The “proliferation and survival of keratinocytes” value in assay [3] is given as “not inhibited”. The “effect of pretreatment with AMD-3100 on the inhibitory effect of 4F-benzoyl-TN14003” value in the assay with NB4 cells is “abolished”. Further, the “CD34+ stem cell numbers” value in assay [4] is on record as “did not affect cell numbers”. Moreover, in the assay on HL-60 cells, the “effect of pretreatment with AMD-3100 on the effect of 4F-benzoyl-TN14003” value is “abolished the effect of 4F-benzoyl-TN14003”.
